Source: PubChem BioAssay (NCI)
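Compound exposure: 48 hours, 5 concentrations, 96-well plates. At the GI50, growth is halved. Definition used: TGI = concentration required for complete inhibition of growth.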

Assays:
Assay in all cases: inhibition of tumour cell growth, NCI panel, 48 h
[1] = system: 786-0 renal
[2] = system: ACHN renal
[3] = system: HOP-62 NSCLC
[4] = system: LOX IMVI melanoma
[5] = system: OVCAR-3 ovarian
[6] = system: OVCAR-8 ovarian
[7] = system: RPMI-8226 leukemia
[8] = system: SF-268 CNS
[9] = system: SK-MEL-2 melanoma
[10] = system: SNB-19 CNS

| SMILES | GI50 [1] [µM] | TGI [1] [µM] | GI50 [2] [µM] | TGI [2] [µM] | GI50 [3] [µM] | TGI [3] [µM] | GI50 [4] [µM] | TGI [4] [µM] | GI50 [5] [µM] | TGI [5] [µM] | GI50 [6] [µM] | TGI [6] [µM] | GI50 [7] [µM] | TGI [7] [µM] | GI50 [8] [µM] | TGI [8] [µM] | GI50 [9] [µM] | TGI [9] [µM] | GI50 [10] [µM] | TGI [10] [µM] |
| --- | --- | --- | --- | --- | --- | --- | --- | --- | --- | --- | --- | --- | --- | --- | --- | --- | --- | --- | --- | --- |
| O=Nc1c(-c2c(O)[nH]c3ccc([N+](=O)[O-])cc23)[nH]c2ccc(O)cc12 | 0.319 | > 100 | 0.261 | > 100 | 0.524 | > 33.6 | 0.171 | 0.531 | 0.367 | 3.04 | 0.36 | > 100 | 0.665 | 14.7 | 0.474 | > 100 | 0.293 | 0.757 | 0.465 | > 100 |
| COC(=O)C1C(O)CC(c2ccccn2)N(Cc2ccccc2)C1c1ccccn1 (stereo not given) | – | > 100 | – | > 100 | – | > 100 | – | > 100 | – | > 100 | – | > 100 | – | > 100 | – | > 100 | – | > 100 | – | > 100 |
| OC1c2ccccc2C2(O)C1C(c1ccccc1)C(c1ccccc1)C2(O)c1ccccc1 (stereo not given) | – | 31.1 | – | 29.7 | – | 28.2 | – | 21.1 | – | 26.9 | – | 43.5 | – | 65.1 | – | 68.8 | – | 23.3 | – | > 100 |
| O=Cc1ccccc1OCCOc1cc(OCCOc2ccccc2C=O)c(OCCOc2ccccc2C=O)cc1OCCOc1ccccc1C=O | – | > 71.3 | – | > 92.5 | – | > 100 | – | > 100 | – | > 100 | – | > 100 | – | > 100 | – | > 100 | – | > 100 | – | > 82.9 |
| COc1ccc(-c2oc3c(OC)c(OC)c(OC)c(O)c3c(=O)c2OC)cc1OC | – | > 77.9 | – | > 100 | – | > 100 | – | > 76.3 | – | > 93.6 | – | > 100 | – | 59.3 | – | > 55.1 | – | 66.2 | – | > 100 |
| CC(C)CNCC(O)COc1ccc(C(C)(C)c2ccc(OCC(O)CNCC(C)C)cc2)cc1 (stereo not given) | 1.5 | 3.03 | 1.82 | 3.41 | 2.92 | 11.7 | 1.57 | 3.04 | 1.92 | 4.15 | 2.01 | 4.42 | 1.88 | 4.42 | 3.9 | 17.4 | 1.81 | 3.57 | 3.15 | 10.9 |
| CCOC(=O)C1(Br)C(c2ccccc2)NC(=O)NC1(C)Br (stereo not given) | – | > 100 | – | > 100 | – | > 100 | – | > 58.4 | – | > 100 | – | > 100 | – | > 88.9 | – | > 100 | – | > 100 | – | > 66 |
| CC1CC2CC(=O)CC3(C1)C2CCCN3CCCO (stereo not given) | – | > 100 | – | > 100 | – | > 100 | – | > 100 | – | > 100 | – | > 100 | – | > 100 | – | > 100 | – | > 100 | – | > 100 |
| COC1=CC(=O)C2C(C1=O)[C@@H]1c3ccccc3C[C@H]21 (stereo not given in full) | – | > 100 | – | > 100 | – | > 100 | – | > 100 | – | > 100 | – | > 100 | – | > 100 | – | > 100 | – | > 100 | – | > 100 |
| COc1ccc2c(c1)/C(=C\c1cccnc1)C(=O)N2 | 18.3 | 45.7 | 18.5 | 38.9 | 23 | 60.3 | 8.83 | 25.3 | 40.5 | > 100 | 11.8 | 43.6 | 18.6 | 76.7 | 12.9 | 37 | 42.3 | > 100 | 16.2 | 51.6 |
| COc1ccccc1/C=C1\CCC(CCN(C)C)(C2=CCCC2)C1=O (stereo not given) | – | 28.5 | – | 34.1 | – | 34.5 | – | 31.3 | – | 40.6 | – | 34.7 | – | 41.3 | – | 40.1 | – | 35.6 | – | 31.1 |
| O=C(O)[C@@H]1[C@H](C(=O)O)[C@H](C(=O)O)C[C@@H]1C(=O)O | – | > 100 | – | > 100 | – | > 100 | – | > 100 | – | > 100 | – | > 100 | – | > 100 | – | > 100 | – | > 100 | – | > 100 |
| CCn1c(C(=O)N(C2CC2)C2CC2)cc2c3c(ncn3C)c(Nc3cc(C)n(C)n3)nc21 | > 100 | > 100 | > 100 | > 100 | > 100 | > 100 | 59.2 | > 100 | > 100 | > 100 | > 100 | > 100 | > 100 | > 100 | > 100 | > 100 | > 100 | > 100 | > 100 | > 100 |
| O=C(c1ccc(Cl)cc1)c1ccc(OCCCCCCCCCCOc2ccc(C(=O)c3ccc(Cl)cc3)cc2)cc1 | – | > 100 | – | > 100 | – | > 100 | – | > 100 | – | > 100 | – | > 100 | – | > 100 | – | > 100 | – | > 100 | – | > 100 |
| Oc1ccc(C(c2ccc(O)cc2)c2ccc(Cl)cn2)cc1 | 36.2 | > 100 | 0.427 | 22.2 | 33.7 | > 100 | 0.295 | > 100 | 0.0266 | 0.0769 | 0.0346 | 1.16 | 21.1 | > 84.8 | 25.9 | > 100 | 4.31 | 60.3 | 19.1 | > 100 |
| Clc1ccc(Cc2nc3ccccc3s2)c(Cl)c1 | – | 27.8 | – | 34.9 | – | 32.9 | – | 31.4 | – | 33 | – | 38.4 | – | 48.5 | – | 30.5 | – | 32.7 | – | 49.1 |
| COc1ccc2c(c1)C(=O)c1c-2n(CCCN=[N+]=[N-])c(=O)c2cc(N(C)C)ccc12 | 29.5 | > 100 | > 100 | > 100 | 10.3 | > 100 | > 100 | > 100 | > 100 | > 100 | 84.6 | > 100 | > 100 | > 100 | 22.3 | > 100 | > 100 | > 100 | > 100 | > 100 |
